Assay [1] has as its target T1, Monoamine Oxidase B (central) (Rattus norvegicus, UniProt P19643).
T1 construct: Rat brain was used as the enzyme source; tissue NovaScreen (Hanover, Md.) performed the assay; host or cells: rat brain
The experiment in a line: Central Monoamine Oxidase B Enzyme Assay. It counts as biochemical. The conditions noted are these: rat brain as enzyme source. How it is done: The methods to determine activity at monoamine oxidase enzymes (for example, central MAOA and MAOB) are described by Otsuka and Kobayashi, 1964, and were performed by NovaScreen (Hanover, Md.) with the following modifications.
Central Monoamine Oxidase B Enzyme Assay: Rat brain was used as the enzyme source. The assay was performed as described above for central MAOA, except the reference compound was RO 166491 and the subtype selective blocker was 100 nM clorgyline. Also, the substrate ([^14C]Phenylethylamine, 0.056 Ci/mmol) was added and incubated for 10 minutes.
(§1) Binding data were analyzed using nonlinear regression and statistical techniques available in the GraphPAD Prism package (San Diego, Calif.). Enzymatic assay data were derived from a standard curve of reference compound data.

In assay [2] the target is T2, human GAL2 receptor (Homo sapiens, UniProt O43603).
T2 construct: expressed in transfected cells
T2 sequence (O43603 1-387): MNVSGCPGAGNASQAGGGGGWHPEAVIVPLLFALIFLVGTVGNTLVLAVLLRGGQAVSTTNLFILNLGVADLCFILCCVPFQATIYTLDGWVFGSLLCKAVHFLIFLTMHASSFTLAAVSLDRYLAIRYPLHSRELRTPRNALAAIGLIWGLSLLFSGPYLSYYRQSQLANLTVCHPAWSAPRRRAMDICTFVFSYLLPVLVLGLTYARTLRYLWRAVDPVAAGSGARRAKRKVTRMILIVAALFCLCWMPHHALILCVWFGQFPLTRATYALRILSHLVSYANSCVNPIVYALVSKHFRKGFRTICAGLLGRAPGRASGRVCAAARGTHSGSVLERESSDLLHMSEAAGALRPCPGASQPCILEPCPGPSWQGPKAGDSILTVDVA
The assay is described as follows: Radioligand binding at cloned human GAL2 receptor. The conditions noted are these: indolones, Table 4, read-out: Ki (nM) GalR 2. On the procedure: (§2) The present invention provides for a method of determining the binding affinity of a GAL3 antagonist, wherein the GAL3 antagonist is dissolved in a “suitable solvent”. A “suitable solvent” means one which permits the measurement of binding affinity of the GAL3 antagonist to the human GAL3 receptor at concentrations less than 1 μM, preferably less than 100 nM. Examples of solvents include, but are not limited to, DMSO, ethanol, N,N-dimethylacetamide, or water. For indolones, the preferred solvent is 3% DMSO (final concentration in the assay). For pyrimidines, the preferred solvent is 1% ethanol/0.09% polypuronic acid F-127 (final concentration in the assay). For any other type of compounds, the preferred solvent is the solvent which permits the measurement of binding affinity of a GAL3 antagonist at the lowest concentration. Once a suitable solvent is ascertained for the binding assay of the human GAL3 receptor, the same solvent is used in assays to determine the binding affinity for instance, at the GAL1 receptor.
(§3) The binding properties of the pyrimidines of the present invention were evaluated at the cloned human galanin receptors, GAL1, GAL2, and GAL3, using protocols described herein.
(§4) The binding properties of the indolones of the present invention were evaluated at the cloned human galanin receptors, GAL1, GAL2, and GAL3, using protocols described herein.
(§5) LM(tk-) cells were stably transfected with the human GAL1 or GAL3 receptor. CHO cells were stably transfected with the human GAL2 receptor.
(§6) cDNAs for the human and rat GAL1, and human and rat GAL3 receptors were transfected with a G-418 resistant gene into the mouse fibroblast LM(tk-) cell line by a calcium phosphate transfection method (Cullen, 1967). Stably transfected cells were selected with G-418. Human and rat GAL2 receptors were similarly transfected into CHO cells.
(§7) Membranes were harvested from stably transfected LM(tk-) cells. Adherent cells were washed twice in ice-cold phosphate buffered saline (138 mM NaCl, 8.1 mM Na2HPO4, 2.5 mM KCl, 1.2 mM KH2PO4, 0.9 mM CaCl2, 0.5 mM MgCl2, pH 7.4) and lysed by sonication in ice-cold sonication buffer (20 mM Tris-HCl, 5 mM EDTA, pH 7.7). Large particles and debris were cleared by low speed centrifugation (200×g, 5 min, 4° C.). Membranes were collected from the supernatant fraction by centrifugation (32,000×g, 18 min, 4° C.), washed with ice-cold hypotonic buffer, and collected again by centrifugation (32,000×g, 18 min, 4° C.). The final membrane pellet was resuspended by sonication into a small volume of ice-cold binding buffer (−1 ml for every 5 plates: 10 mM NaCl, 20 mM HEPES, 0.22 mM KH2PO4, 1.26 mM CaCl2, 0.81 mM MgSO4, pH 7.4). Protein concentration was measured by the Bradford method (Bradford, 1976) using Bio-Rad Reagent, with bovine serum albumin as a standard. Membranes were held on ice for up to one hour and used fresh, or flash frozen and stored in liquid nitrogen. Membranes were prepared similarly from CHO cells.
(§8) Galanin Receptors: Binding assays were performed according to the following published methods: human GAL3 (PCT International Publication No. WO 98/15570), human GAL1 (PCT International Publication No. WO 95/2260) human GAL2 (PCT International Publication No. WO 97/26853).
as §1

The target of assay [3] is T3, human GAL1 receptor (Homo sapiens, UniProt P47211).
T3 construct: expressed in transfected cells
T3 sequence (P47211 1-349): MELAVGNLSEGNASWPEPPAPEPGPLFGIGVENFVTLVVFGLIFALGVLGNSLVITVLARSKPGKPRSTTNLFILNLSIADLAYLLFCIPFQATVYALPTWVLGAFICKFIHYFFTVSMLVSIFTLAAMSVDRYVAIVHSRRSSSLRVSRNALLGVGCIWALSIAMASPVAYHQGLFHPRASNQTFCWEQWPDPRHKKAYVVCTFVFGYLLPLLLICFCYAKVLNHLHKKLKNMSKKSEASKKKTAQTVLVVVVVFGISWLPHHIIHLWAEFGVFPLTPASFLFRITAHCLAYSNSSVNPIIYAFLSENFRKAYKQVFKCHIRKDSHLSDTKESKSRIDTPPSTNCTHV
The experiment in a line: Radioligand binding at cloned human GAL1 receptor. The conditions noted are these: indolones, Table 4, read-out: Ki (nM) GalR 1. How it is done: as §2, §3, §4, §5, §6, §7, §8, §1

Assay [4] deals with T4, rat D3 receptor (Rattus norvegicus, UniProt P19020).
T4 construct: purchased BioSignal, Inc. (Montreal, Canada)
The assay is described as follows: Binding at rat dopamine D3 receptor. Particulars: read-out: rD3 Ki.
Text: Other receptors: Cell membranes expressing human dopamine D1, D2, D4 and rat D3 receptors were purchased through BioSignal, Inc. (Montreal, Canada). Binding assays using the histamine H1 receptor; dopamine receptors; and α1A, α1B, and α2 adrenergic receptors may be carried out according to the procedures described in U.S. Pat. No. 5,780,485, the disclosure of which is hereby incorporated by reference in its entirety into this application. Binding assays using the dopamine D5 receptor may be carried out according to the procedures described in U.S. Pat. No. 5,882,855, the disclosure of which is hereby incorporated by reference in its entirety into this application. Binding assays for the human α1D adrenergic receptor may be carried out according to the procedures described in U.S. Pat. No. 6,156,518, the disclosure of which is hereby incorporated by reference in its entirety into this application.
as §1

T4 sequence (P19020 whole entry): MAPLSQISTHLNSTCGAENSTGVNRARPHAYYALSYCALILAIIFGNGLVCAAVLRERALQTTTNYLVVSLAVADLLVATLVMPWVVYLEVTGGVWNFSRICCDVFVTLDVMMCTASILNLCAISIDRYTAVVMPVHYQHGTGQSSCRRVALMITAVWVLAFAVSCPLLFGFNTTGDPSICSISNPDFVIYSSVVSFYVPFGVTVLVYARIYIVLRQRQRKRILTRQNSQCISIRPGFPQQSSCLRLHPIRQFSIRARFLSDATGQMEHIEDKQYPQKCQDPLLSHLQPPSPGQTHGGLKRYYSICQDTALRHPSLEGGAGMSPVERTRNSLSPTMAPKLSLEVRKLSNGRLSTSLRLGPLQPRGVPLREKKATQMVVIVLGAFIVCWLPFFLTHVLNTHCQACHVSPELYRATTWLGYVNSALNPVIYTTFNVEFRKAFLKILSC
T1 sequence (P19643 whole entry): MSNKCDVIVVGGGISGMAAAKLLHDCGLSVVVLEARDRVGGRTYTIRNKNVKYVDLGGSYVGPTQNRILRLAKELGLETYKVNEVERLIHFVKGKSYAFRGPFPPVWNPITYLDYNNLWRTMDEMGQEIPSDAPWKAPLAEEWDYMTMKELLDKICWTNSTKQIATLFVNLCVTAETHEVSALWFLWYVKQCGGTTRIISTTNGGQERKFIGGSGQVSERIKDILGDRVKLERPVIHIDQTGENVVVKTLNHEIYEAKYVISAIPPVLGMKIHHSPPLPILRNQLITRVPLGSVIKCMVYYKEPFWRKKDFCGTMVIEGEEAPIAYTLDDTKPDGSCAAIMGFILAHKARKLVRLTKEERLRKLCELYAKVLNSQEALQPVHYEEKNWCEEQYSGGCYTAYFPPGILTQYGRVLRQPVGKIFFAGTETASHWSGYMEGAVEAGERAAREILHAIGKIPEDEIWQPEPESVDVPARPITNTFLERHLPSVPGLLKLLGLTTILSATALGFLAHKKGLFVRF

For orientation: Ki means a dissociation constant, usually derived from enzyme kinetics or from competition with a known ligand. `O=C1C(=Nc2cccc(C(F)(F)F)c2)c2ccccc2N1c1ccccc1` [Example 92, 1-PHENYL-3-[[3-(TRIFLUOROMETHYL)PHENYL]IMINO]-1,3-DIHYDRO-2H-INDOL-2-ONE]: in assay [1], the “% INHIBITION” value came to 1%. For the same compound, the Ki is > 10000 nM in assay [2], > 10000 nM in assay [3] and 48.2 µM in assay [4].

The values are drawn from patent US20040110821A1, “GAL3 receptor antagonists for the treatment of affective disorders” (priority 2002, published 2004).
